Results on 53 compounds are retold here after ChEMBL document CHEMBL3880421, “Indazole compounds and pharmaceutical compositions for inhibiting protein kinases, and methods for their use” (2003).

For orientation: inhibition means the change of the read-out against control, counted positive when it falls. As usually defined, the Cmax is the peak of the concentration-time curve.

A short description of series [1]: Terminal half life in B6 mouse at 50 mg/kg, po by UV-HPLC analysis. The series is classed as ADME, organism-based. The following applies: in vivo; for half-life: B6, mouse, read-out: beta t1/2 (converted); for beta t1/2: mouse, BLD = below limit of detection.
A short description of series [2]: Terminal half life in B6 mouse at 25 mg/kg, ip by UV-HPLC analysis. The following applies: in vivo, read-out: beta t1/2 (converted). It counts as ADME, organism-based.
For series [3], the target named is Cyclin-dependent kinase 1 (Homo sapiens) (UniProt P06493). Nature of the series: Inhibition of CDK1 (unknown origin) at 1 uM.
Sequence of Cyclin-dependent kinase 1 (Homo sapiens) (P06493 whole entry, looked up): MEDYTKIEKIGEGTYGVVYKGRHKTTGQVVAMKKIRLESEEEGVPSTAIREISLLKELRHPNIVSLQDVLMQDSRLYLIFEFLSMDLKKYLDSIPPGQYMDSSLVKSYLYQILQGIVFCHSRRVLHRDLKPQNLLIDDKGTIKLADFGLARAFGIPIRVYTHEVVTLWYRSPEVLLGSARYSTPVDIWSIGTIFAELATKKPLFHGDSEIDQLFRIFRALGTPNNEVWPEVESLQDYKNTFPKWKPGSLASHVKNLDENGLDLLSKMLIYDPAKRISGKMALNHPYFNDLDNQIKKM
Series [4] has as its target T1, Serine/threonine-protein kinase Chk1 (Homo sapiens) (UniProt O14757).
T1 sequence (whole entry): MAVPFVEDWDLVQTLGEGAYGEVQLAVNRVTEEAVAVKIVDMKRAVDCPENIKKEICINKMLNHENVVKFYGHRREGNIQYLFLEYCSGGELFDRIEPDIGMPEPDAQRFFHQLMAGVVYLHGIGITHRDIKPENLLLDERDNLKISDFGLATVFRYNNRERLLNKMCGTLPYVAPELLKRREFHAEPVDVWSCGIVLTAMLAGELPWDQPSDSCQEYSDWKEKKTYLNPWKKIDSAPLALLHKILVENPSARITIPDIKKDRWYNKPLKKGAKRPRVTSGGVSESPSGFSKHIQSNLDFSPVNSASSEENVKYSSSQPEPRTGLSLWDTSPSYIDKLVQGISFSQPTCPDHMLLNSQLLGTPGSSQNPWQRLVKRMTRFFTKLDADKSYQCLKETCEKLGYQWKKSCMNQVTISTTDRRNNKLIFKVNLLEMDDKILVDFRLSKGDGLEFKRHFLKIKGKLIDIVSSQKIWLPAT
Description: Inhibition of full length human C-terminal 6His-tagged CHK1 expressed in baculovirus/insect expression system assessed as reduction in NADH oxidation at 20 uM using Syntide2 as substrate by pyruvate kinase/lactate dehydrogenase coupled assay.

The nature of series [5]: Cmax in B6 mouse at 25 mg/kg, po by UV-HPLC analysis. The series is classed as ADME, organism-based. Set-up: dose 25 mg/kg, route oral. The following applies: B6, mouse, in vivo.
Series [6] in a line: Terminal half life in B6 mouse at 25 mg/kg, po by UV-HPLC analysis. It counts as ADME, organism-based. The note with it: B6, mouse, in vivo, read-out: beta t1/2 (converted).
Series [7] relates to Vascular endothelial growth factor receptor 2 (Homo sapiens), P35968 [E990V]. The note with it: at 50 nM.
Sequence of Vascular endothelial growth factor receptor 2 (Homo sapiens), P35968 [E990V] (P35968 whole entry E990V): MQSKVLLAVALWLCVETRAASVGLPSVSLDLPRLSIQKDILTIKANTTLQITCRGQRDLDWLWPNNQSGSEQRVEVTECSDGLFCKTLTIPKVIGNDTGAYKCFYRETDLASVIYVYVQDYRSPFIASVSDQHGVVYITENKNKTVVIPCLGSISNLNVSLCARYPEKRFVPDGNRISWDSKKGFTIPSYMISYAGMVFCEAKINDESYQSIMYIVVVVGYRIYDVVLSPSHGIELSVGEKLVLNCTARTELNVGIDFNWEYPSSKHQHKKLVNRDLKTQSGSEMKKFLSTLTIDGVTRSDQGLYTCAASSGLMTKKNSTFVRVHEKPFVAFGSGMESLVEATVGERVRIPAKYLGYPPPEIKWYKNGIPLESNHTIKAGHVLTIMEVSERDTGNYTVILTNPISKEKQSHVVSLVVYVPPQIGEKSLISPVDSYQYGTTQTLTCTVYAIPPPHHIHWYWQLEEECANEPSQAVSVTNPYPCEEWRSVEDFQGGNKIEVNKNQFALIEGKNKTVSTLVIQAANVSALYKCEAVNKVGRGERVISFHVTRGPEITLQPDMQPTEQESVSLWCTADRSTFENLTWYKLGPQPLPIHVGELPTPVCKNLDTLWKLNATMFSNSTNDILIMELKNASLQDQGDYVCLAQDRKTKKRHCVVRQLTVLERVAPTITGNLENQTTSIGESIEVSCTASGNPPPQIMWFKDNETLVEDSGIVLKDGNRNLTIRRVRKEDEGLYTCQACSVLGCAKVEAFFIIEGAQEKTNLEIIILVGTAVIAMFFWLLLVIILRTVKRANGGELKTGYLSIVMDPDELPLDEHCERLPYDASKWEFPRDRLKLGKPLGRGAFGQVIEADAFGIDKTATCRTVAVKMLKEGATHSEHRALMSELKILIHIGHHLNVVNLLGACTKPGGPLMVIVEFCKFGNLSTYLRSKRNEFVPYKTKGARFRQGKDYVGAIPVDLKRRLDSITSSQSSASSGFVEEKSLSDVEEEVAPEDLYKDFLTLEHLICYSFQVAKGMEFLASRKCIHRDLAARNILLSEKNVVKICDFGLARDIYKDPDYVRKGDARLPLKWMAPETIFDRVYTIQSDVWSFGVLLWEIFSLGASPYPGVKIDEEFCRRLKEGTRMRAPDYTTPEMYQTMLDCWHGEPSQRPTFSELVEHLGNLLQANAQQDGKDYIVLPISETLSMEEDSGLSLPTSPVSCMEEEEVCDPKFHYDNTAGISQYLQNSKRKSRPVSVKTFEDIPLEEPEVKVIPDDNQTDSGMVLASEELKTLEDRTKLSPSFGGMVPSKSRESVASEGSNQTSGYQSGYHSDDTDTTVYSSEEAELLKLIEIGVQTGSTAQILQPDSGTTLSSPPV
In series [8] the test system is Rattus norvegicus. Nature of the series: Antivascular activity in rat model of retinopathy assessed as vessel regression in retina at 5 mg/ml, administered intravitreally measured after 6 days by ADPase-staining based histochemical analysis. It counts as functional.
In series [9] the test system is Rattus norvegicus. Description: Antivascular activity in rat model of retinopathy assessed as vessel regression in retina at 5 mg/ml, administered intravitreally on postnatal day 8 measured after 6 days by ADPase-staining based histochemical analysis. It counts as functional.
Series [10] can be described thus: Terminal half life in B6 mouse at 10 mg/kg, po by UV-HPLC analysis. It counts as ADME, organism-based. The note with it: in vivo, read-out: beta t1/2 (converted).
Series [11] has as its system Focal adhesion kinase 1 (Homo sapiens), Q05397 [P410T]. Description: Inhibition of human FAK P410T mutant expressed in baculovirus expression system at 10 uM using poly Glu-Tyr (4:1) as substrate by fluorescence polarization method. A general note: Polarisation of emitted light reports the rotation of a fluorescent probe.
A short description of series [12]: Antiproliferative activity against VEGF-stimulated HUVEC cells assessed as reduction in cell viability at 10 nM preincubated for 1 hr followed by addition of VEGF measured after 72 hrs by MTT assay. The following applies: Homo sapiens. It counts as functional.

Sequence of Focal adhesion kinase 1 (Homo sapiens), Q05397 [P410T] (Q05397 whole entry P410T): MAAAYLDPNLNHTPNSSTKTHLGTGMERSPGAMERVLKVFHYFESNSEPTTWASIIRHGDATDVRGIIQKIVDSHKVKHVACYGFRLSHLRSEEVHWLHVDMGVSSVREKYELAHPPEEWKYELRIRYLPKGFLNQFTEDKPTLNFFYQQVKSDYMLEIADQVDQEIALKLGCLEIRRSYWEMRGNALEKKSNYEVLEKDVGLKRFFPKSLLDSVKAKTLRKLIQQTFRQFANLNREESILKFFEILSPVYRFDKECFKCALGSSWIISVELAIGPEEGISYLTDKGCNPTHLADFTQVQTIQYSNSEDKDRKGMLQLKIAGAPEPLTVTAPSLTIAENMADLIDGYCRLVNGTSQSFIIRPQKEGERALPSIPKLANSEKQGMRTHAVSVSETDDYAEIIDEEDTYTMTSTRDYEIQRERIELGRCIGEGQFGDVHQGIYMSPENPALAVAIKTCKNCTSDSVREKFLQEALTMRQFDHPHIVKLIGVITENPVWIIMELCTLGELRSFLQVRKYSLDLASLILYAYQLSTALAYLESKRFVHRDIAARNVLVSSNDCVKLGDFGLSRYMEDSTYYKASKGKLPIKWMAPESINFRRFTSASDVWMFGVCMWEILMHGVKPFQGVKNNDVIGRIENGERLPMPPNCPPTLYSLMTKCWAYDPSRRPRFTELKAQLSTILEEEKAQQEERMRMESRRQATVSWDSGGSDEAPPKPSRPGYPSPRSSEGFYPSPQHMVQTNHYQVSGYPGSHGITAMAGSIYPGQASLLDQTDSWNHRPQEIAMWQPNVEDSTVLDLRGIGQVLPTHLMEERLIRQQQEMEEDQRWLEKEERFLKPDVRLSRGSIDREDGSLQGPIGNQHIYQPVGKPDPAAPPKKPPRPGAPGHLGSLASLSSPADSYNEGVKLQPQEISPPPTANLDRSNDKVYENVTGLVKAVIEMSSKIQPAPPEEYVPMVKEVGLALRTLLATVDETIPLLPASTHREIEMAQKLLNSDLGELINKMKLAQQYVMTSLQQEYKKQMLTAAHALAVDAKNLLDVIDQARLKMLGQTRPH

As for `O=C(Nc1nccs1)c1ccccc1Sc1ccc2c(/C=C/c3ccccn3)n[nH]c2c1`, the half-life in series [1] and in series [2] was 1.2 h in each case. Regarding `Fc1cccc(/C=C/c2n[nH]c3cc(-c4ccncc4)ccc23)c1F`, in series [3], the inhibition was in the range of 7 to 31%. Turning to `O=C(c1cccc(NC(=O)c2ccccn2)c1)c1ccc2c(/C=C/c3ccccc3)n[nH]c2c1`, the half-life in [1] and in series [2] was 2.2 h in each case. On to `CC(C)ONC(=O)c1ccccc1Sc1ccc2c(/C=C/c3ccccn3)n[nH]c2c1`, for which the half-life in series [1] was 1.1 h. `C#CCNC(=O)c1ccccc1Sc1ccc2c(/C=C/c3ccccn3)n[nH]c2c1`: the half-life in [1] is 0.9 h; in [2], 1.4 h. As for `O=C(NCc1ccccc1F)c1ccccc1Sc1ccc2c(/C=C/c3ccccn3)n[nH]c2c1`, the half-life in series [1] was 3.6 h; in series [2], 3.8 h. Take `CC(=O)c1ccc(C(=O)Nc2cccc(C(=O)c3ccc4c(/C=C/c5ccccn5)n[nH]c4c3)c2)s1`: the half-life in [1] and in series [2] was 1.6 h in each case. With `CCn1nc(C)cc1C(=O)Nc1cc(C(=O)c2ccc3c(/C=C/c4ccccn4)n[nH]c3c2)ccc1C`, the half-life in [1] is 3.4 h; in series [2], 4 h.

For the compound `Cc1cc(NC(=O)c2ccc3c(-c4nc5ccccc5[nH]4)n[nH]c3c2)n[nH]1`, the inhibition in series [4] stood at 38.6%. Consider `Cc1cc(C(=O)Nc2cccc(C(=O)c3ccc4c(/C=C/c5ccccn5)n[nH]c4c3)c2)on1`, for which, in [1], the “beta t1/2” value is listed as “Bld”.

Regarding `CCn1nc(C)cc1C(=O)Nc1cccc(Oc2ccc3c(/C=C/c4c[nH]cn4)n[nH]c3c2)c1`, the Cmax in series [5] was determined as 179 ng/mL. For the same compound, the half-life in series [6] was 2.1 h. For the compound `C#CCNC(=O)c1cccc(C(=O)c2ccc3c(/C=C/c4ccccn4)n[nH]c3c2)c1`, the inhibition in series [7] was determined as 5%. With `O=C(NCCN1CCOCC1)c1ccc2c(-c3nc4ccccc4[nH]3)n[nH]c2c1`, the inhibition in series [4] came out at 21.7%.

`O=C(Nc1cccc(Cl)c1)c1ccccc1Sc1ccc2c(/C=C/c3ccccn3)n[nH]c2c1`: the half-life was 0.9 h in [1] and 1.6 h in [2]. On to `O=C(c1cccc(NC(=O)c2ccccn2)c1)c1ccc2c(/C=C/c3ccccn3)n[nH]c2c1`, for which the half-life was 0.9 h in series [1] and 2.1 h in [2]. In the case of `O=C(c1ccc2c(-c3nc4ccccc4[nH]3)n[nH]c2c1)N1CCC(CCO)CC1`, in series [4], the inhibition is 33%. As to `O=C(c1cccc(NC(=O)c2cccc3[nH]ccc23)c1)c1ccc2c(/C=C/c3ccccn3)n[nH]c2c1`, the half-life in series [1] was 1.5 h; in series [2], 2.8 h. Consider `Cn1nc(C(C)(C)C)cc1C(=O)Nc1cccc(C(=O)c2ccc3c(/C=C/c4ccccn4)n[nH]c3c2)c1`, for which the half-life is 1.9 h in [1] and 3.2 h in series [2]. As to `C=C(C)CNC(=O)c1ccccc1Sc1ccc2c(/C=C/c3ccccn3)n[nH]c2c1`, the half-life in [6] was 14.6 h; in series [2] it was 1.5 h. As to `O=C(NC1CC1)c1ccccc1Sc1ccc2c(/C=C/c3ccccn3)n[nH]c2c1`, the half-life in series [1] is 0.7 h; in [2] it was 1 h.

Take `CC(=O)c1cccc(C(=O)Nc2cccc(N(C)c3ccc4c(/C=C/c5ccc6c(c5)OCO6)n[nH]c4c3)c2)c1`: the Activity in the series on Rattus norvegicus [8] is given as 36 - 37%.

With `Cc1cc(C(=O)Nc2cccc(Oc3ccc4c(/C=C/c5ccccn5)n[nH]c4c3)c2)nn1C`, the half-life in [1] was 1 h; in series [2], 1.7 h.

Take `C=CCONC(=O)c1ccccc1Sc1ccc2c(/C=C/c3ccccn3)n[nH]c2c1`: the half-life in [1] was 4.5 h; in series [2], 1.3 h. For the compound `C/C=C/C(=O)Nc1cccc(C(=O)c2ccc3c(/C=C/c4ccccn4)n[nH]c3c2)c1`, the half-life in series [1] is 2.6 h; in [2], 1.7 h. Moreover, the Activity in the series with Rattus norvegicus [9] was 25 - 75%. For the compound `CCCNC(=O)c1ccccc1Sc1ccc2c(/C=C/c3ccccn3)n[nH]c2c1`, the half-life in [1] is 0.9 h; in [2] it was 1.4 h. On to `O=C(Nc1cccc(Oc2ccc3c(/C=C/c4ccccn4)n[nH]c3c2)c1)c1ccccc1`, for which the half-life in series [2] is 2.4 h. Regarding `CCOCCNC(=O)c1ccccc1Sc1ccc2c(/C=C/c3ccccn3)n[nH]c2c1`, the half-life in series [2] was 1.8 h. Turning to `O=C(Nc1cccc(C(=O)c2ccc3c(/C=N/n4cccc4)n[nH]c3c2)c1)c1ccccc1`, the figures for the half-life in [1] and in series [2] were 3 h and 2 h, respectively. Take `O=C(Nc1cccc(C(=O)c2ccc3c(/C=C/c4ccccn4)n[nH]c3c2)c1)c1ccccc1`: the half-life in series [1] is 2 h; in series [2] it was 5 h. For `Cc1cc(C(=O)Nc2cc(C(=O)c3ccc4c(/C=C/c5ccccn5)n[nH]c4c3)c(C)cc2C)n(C)n1`, the Activity entry in the series on Rattus norvegicus [9] is “<=25%”. As to `Cc1cc(C(=O)Nc2cccc(C(=O)c3ccc4c(/C=C/c5ccccn5)n[nH]c4c3)c2)n[nH]1`, the half-life is 0.7 h in series [1] and 0.3 h in series [2]. For the compound `O=C(Nc1cccc(C(=O)c2ccc3c(-c4nc5ccccc5[nH]4)n[nH]c3c2)c1)c1ccccc1`, the half-life in series [1] and in [2] was 3 h throughout.

Consider `CCNC(=O)c1ccccc1Sc1ccc2c(/C=C/c3ccccn3)n[nH]c2c1`, for which the half-life in series [1] was 0.9 h; in series [2] it was 3.2 h. Take `CC(C)NC(=O)c1ccccc1Sc1ccc2c(/C=C/c3ccccn3)n[nH]c2c1`: the half-life in series [1] and in series [2] was 0.8 h in each case. For the compound `O=C(Nc1cc(Nc2ccc3c(/C=C/c4ccccc4)n[nH]c3c2)ccc1F)c1ccccc1`, the half-life in series [1] is 3.4 h; in [2] it was 19.9 h. Consider `O=C(NCC(F)(F)F)c1ccccc1Sc1ccc2c(/C=C/c3ccccn3)n[nH]c2c1`, for which the results for the half-life in series [1] and in series [2] were 0.7 h and 2.4 h, respectively. `C[C@@H]1C[C@H]1C(=O)Nc1cccc(C(=O)c2ccc3c(/C=C/c4ccccn4)n[nH]c3c2)c1` (racemic): the half-life was 0.7 h in series [1] and 1.2 h in series [2]. Regarding `CCn1nc(C)cc1C(=O)Nc1cccc(C(=O)c2ccc3c(/C=C/c4ccccn4)n[nH]c3c2)c1`, the figures for the half-life in series [1] and in [2] were 3.4 h and 2.9 h, respectively. For the same compound, in the series on Rattus norvegicus [9], the Activity entry is on record as “>=25 - 75%”. Consider `Cc1ccc2cc(NC(=O)c3ccccc3Sc3ccc4c(/C=C/c5ccccn5)n[nH]c4c3)ccc2n1`, for which the half-life in series [1] and in series [2] was 3 h in each case.

Turning to `O=C(NCC1CC1)c1ccccc1Sc1ccc2c(/C=C/c3ccccn3)n[nH]c2c1`, the half-life in series [1] was 1 h; in series [2], 0.9 h.

Take `O=C(Nc1ccccc1)c1ccccc1Sc1ccc2c(/C=C/c3ccccn3)n[nH]c2c1`: the values for the half-life in series [1] and in series [2] were 3 h and 1.2 h, respectively. For `Cn1cccc1C(=O)NNC(=O)c1ccccc1Sc1ccc2c(/C=C/c3ccccn3)n[nH]c2c1`, the half-life in [1] was 0.9 h; in series [2] it was 1.8 h.

For the compound `O=C(Nc1cccc(Oc2ccc3c(/C=C/c4ccc(Cl)cc4)n[nH]c3c2)c1)c1ccccc1`, the Activity in the series with Rattus norvegicus [8] is 25 - 75%.

`O=C(Nc1cccc(C(=O)c2ccc3c(/C=C/c4ccccc4)n[nH]c3c2)c1)c1ccncc1`: the half-life is 1.2 h in series [1] and 1.6 h in [2]. As for `O=C(Nc1cccc(O)c1)c1ccc2c(-c3nc4ccccc4[nH]3)n[nH]c2c1`, the inhibition in [4] worked out at 57.7%.

Consider `O=C(NC1CCC1)c1ccccc1Sc1ccc2c(/C=C/c3ccccn3)n[nH]c2c1`, for which the half-life was 4.9 h in series [1] and 3.2 h in [2].

As for `O=C(Nc1cccc(C(=O)c2ccc3c(-c4nc5cccnc5[nH]4)n[nH]c3c2)c1)c1ccccc1`, the “beta t1/2” value in series [1] is reported as “Bld”. Regarding `CCn1nc(C)cc1C(=O)Nc1cccc(Oc2ccc3c(/C=C/c4ccccn4)n[nH]c3c2)c1`, the half-life in series [10] is 3.1 h; in series [1], 39.3 h; in series [6], 1.9 h; in [2] it was 5.3 h. Take `CCn1nc(C)cc1C(=O)Nc1cccc(Oc2ccc3c(/C=C/c4ccccn4)n[nH]c3c2)c1.Cl`: the half-life in series [6] was 21 h. The compound `COc1cc(-c2ccc3c(-c4cc5ccccc5[nH]4)n[nH]c3c2)ccc1O` had an inhibition in series [11] of 26%.

Regarding `CN(C)C(=S)SCC(=O)Nc1cccc(C(=O)c2ccc3c(/C=C/c4ccccc4)n[nH]c3c2)c1`, in series [12], the inhibition at 0.01 µM stood at 25%. The same measure, in the same setting: the same measure for `O=C(c1cccc(NC(=O)c2cccc3cc[nH]c23)c1)c1ccc2c(/C=C/c3ccccc3)n[nH]c2c1`: 58%; for `Cc1cc(C(=O)Nc2cccc(Oc3ccc4c(/C=C/c5ccccc5)n[nH]c4c3)c2)c(C)[nH]1`: 52%.
